Test: xn = mol fraction of the nth substance listed
Conditions: 100 kPa, Liquid; for viscosity: Falling or rolling sphere viscometry; for mass density: Vibrating tube method

CCCC[N+]1(C)CCCC1.N#CN=C=[N-] [1-butyl-1-methylpyrrolidinium dicyanamide] + O
Conditions	mass density [kg/m3]	viscosity [mPa·s]
298.15 K, x1 = 0.0729	1007.24	4.316
298.15 K, x1 = 0.1652	1012.47	7.983
298.15 K, x1 = 0.2234	1014.18	9.939
298.15 K, x1 = 0.3163	1015.68	12.88
298.15 K, x1 = 0.3548	1016.11	13.94
298.15 K, x1 = 0.4198	1016.65	15.86
298.15 K, x1 = 0.4762	1016.99	17.41
298.15 K, x1 = 0.5239	1017.27	18.57
298.15 K, x1 = 0.6244	1017.71	21.49
298.15 K, x1 = 0.629	1017.73	21.62
298.15 K, x1 = 0.711	1018.09	24.03
298.15 K, x1 = 0.7413	1018.22	24.99
298.15 K, x1 = 0.8776	1018.79	29.68
298.15 K, x1 = 0.9732	1019.13	33.6
298.15 K, x1 = 1	1019.2	34.74
303.15 K, x1 = 0.0729	1004.74	3.713
303.15 K, x1 = 0.1652	1009.29	6.795
303.15 K, x1 = 0.2234	1010.84	8.502
303.15 K, x1 = 0.3163	1012.43	11.02
303.15 K, x1 = 0.3548	1012.9	11.96
303.15 K, x1 = 0.4198	1013.55	13.57
303.15 K, x1 = 0.4762	1014	14.9
303.15 K, x1 = 0.5239	1014.32	15.9
303.15 K, x1 = 0.6244	1014.87	18.37
303.15 K, x1 = 0.629	1014.89	18.48
303.15 K, x1 = 0.711	1015.28	20.5
303.15 K, x1 = 0.7413	1015.41	21.31
303.15 K, x1 = 0.8776	1015.96	25.19
303.15 K, x1 = 0.9732	1016.28	28.4
303.15 K, x1 = 1	1016.38	29.33
308.15 K, x1 = 0.0729	1001.6	3.226
308.15 K, x1 = 0.1652	1006.1	5.903
308.15 K, x1 = 0.2234	1007.7	7.346
308.15 K, x1 = 0.3163	1009.37	9.521
308.15 K, x1 = 0.3548	1009.87	10.37
308.15 K, x1 = 0.4198	1010.57	11.73
308.15 K, x1 = 0.4762	1011.05	12.88
308.15 K, x1 = 0.5239	1011.4	13.75
308.15 K, x1 = 0.6244	1011.99	15.87
308.15 K, x1 = 0.629	1012.02	15.96
308.15 K, x1 = 0.711	1012.42	17.69
308.15 K, x1 = 0.7413	1012.56	18.34
308.15 K, x1 = 0.8776	1013.13	21.64
308.15 K, x1 = 0.9732	1013.47	24.32
308.15 K, x1 = 1	1013.58	25.09
313.15 K, x1 = 0.0729	998.69	2.83
313.15 K, x1 = 0.1652	1002.9	5.143
313.15 K, x1 = 0.2234	1004.59	6.408
313.15 K, x1 = 0.3163	1006.34	8.303
313.15 K, x1 = 0.3548	1006.88	9
313.15 K, x1 = 0.4198	1007.61	10.23
313.15 K, x1 = 0.4762	1008.11	11.23
313.15 K, x1 = 0.5239	1008.46	12
313.15 K, x1 = 0.6244	1009.1	13.83
313.15 K, x1 = 0.629	1009.13	13.91
313.15 K, x1 = 0.711	1009.55	15.4
313.15 K, x1 = 0.7413	1009.72	15.98
313.15 K, x1 = 0.8776	1010.35	18.78
313.15 K, x1 = 0.9732	1010.72	21.05
313.15 K, x1 = 1	1010.79	21.7
318.15 K, x1 = 0.0729	995.65	2.5
318.15 K, x1 = 0.1652	999.68	4.486
318.15 K, x1 = 0.2234	1001.37	5.632
318.15 K, x1 = 0.3163	1003.18	7.302
318.15 K, x1 = 0.3548	1003.78	7.982
318.15 K, x1 = 0.4198	1004.58	9.005
318.15 K, x1 = 0.4762	1005.15	9.9
318.15 K, x1 = 0.5239	1005.54	10.57
318.15 K, x1 = 0.6244	1006.25	12.17
318.15 K, x1 = 0.629	1006.28	12.24
318.15 K, x1 = 0.711	1006.71	13.55
318.15 K, x1 = 0.7413	1006.88	14.02
318.15 K, x1 = 0.8776	1007.51	16.46
318.15 K, x1 = 0.9732	1007.94	18.4
318.15 K, x1 = 1	1008	18.95
323.15 K, x1 = 0.0729	992.46	2.233
323.15 K, x1 = 0.1652	996.43	3.985
323.15 K, x1 = 0.2234	998.16	4.99
323.15 K, x1 = 0.3163	1000.13	6.467
323.15 K, x1 = 0.3548	1000.71	7.043
323.15 K, x1 = 0.4198	1001.58	7.978
323.15 K, x1 = 0.4762	1002.18	8.763
323.15 K, x1 = 0.5239	1002.64	9.377
323.15 K, x1 = 0.6244	1003.38	10.79
323.15 K, x1 = 0.629	1003.41	10.85
323.15 K, x1 = 0.711	1003.92	12
323.15 K, x1 = 0.7413	1004.07	12.45
323.15 K, x1 = 0.8776	1004.69	14.56
323.15 K, x1 = 0.9732	1005.09	16.24
323.15 K, x1 = 1	1005.23	16.72
328.15 K, x1 = 0.0729	989.39	2.005
328.15 K, x1 = 0.1652	993.17	3.59
328.15 K, x1 = 0.2234	994.93	4.448
328.15 K, x1 = 0.3163	997.04	5.765
328.15 K, x1 = 0.3548	997.72	6.295
328.15 K, x1 = 0.4198	998.6	7.116
328.15 K, x1 = 0.4762	999.26	7.819
328.15 K, x1 = 0.5239	999.74	8.369
328.15 K, x1 = 0.6244	1000.55	9.629
328.15 K, x1 = 0.629	1000.57	9.685
328.15 K, x1 = 0.711	1001.11	10.71
328.15 K, x1 = 0.7413	1001.26	11.1
328.15 K, x1 = 0.8776	1001.89	12.96
328.15 K, x1 = 0.9732	1002.31	14.43
328.15 K, x1 = 1	1002.48	14.84
333.15 K, x1 = 0.0729	985.91	1.807
333.15 K, x1 = 0.1652	989.89	3.196
333.15 K, x1 = 0.2234	991.81	3.98
333.15 K, x1 = 0.3163	994.04	5.16
333.15 K, x1 = 0.3548	994.76	5.643
333.15 K, x1 = 0.4198	995.72	6.375
333.15 K, x1 = 0.4762	996.34	7.009
333.15 K, x1 = 0.5239	996.85	7.517
333.15 K, x1 = 0.6244	997.67	8.64
333.15 K, x1 = 0.629	997.7	8.691
333.15 K, x1 = 0.711	998.24	9.609
333.15 K, x1 = 0.7413	998.46	9.96
333.15 K, x1 = 0.8776	999.13	11.62
333.15 K, x1 = 0.9732	999.61	12.92
333.15 K, x1 = 1	999.74	13.28
338.15 K, x1 = 0.0729	982.26	1.642
338.15 K, x1 = 0.1652	986.61	2.892
338.15 K, x1 = 0.2234	988.61	3.587
338.15 K, x1 = 0.3163	990.99	4.649
338.15 K, x1 = 0.3548	991.74	5.083
338.15 K, x1 = 0.4198	992.73	5.746
338.15 K, x1 = 0.4762	993.46	6.319
338.15 K, x1 = 0.5239	993.96	6.784
338.15 K, x1 = 0.6244	994.85	7.795
338.15 K, x1 = 0.629	994.9	7.841
338.15 K, x1 = 0.711	995.49	8.671
338.15 K, x1 = 0.7413	995.67	9
338.15 K, x1 = 0.8776	996.49	10.48
338.15 K, x1 = 0.9732	996.91	11.64
338.15 K, x1 = 1	997	11.96
343.15 K, x1 = 0.0729	979.39	1.496
343.15 K, x1 = 0.1652	983.31	2.593
343.15 K, x1 = 0.2234	985.46	3.24
343.15 K, x1 = 0.3163	988.01	4.199
343.15 K, x1 = 0.3548	988.75	4.587
343.15 K, x1 = 0.4198	989.8	5.195
343.15 K, x1 = 0.4762	990.47	5.717
343.15 K, x1 = 0.5239	991.03	6.142
343.15 K, x1 = 0.6244	991.95	7.061
343.15 K, x1 = 0.629	991.96	7.103
343.15 K, x1 = 0.711	992.62	7.857
343.15 K, x1 = 0.7413	992.85	8.116
343.15 K, x1 = 0.8776	993.62	9.492
343.15 K, x1 = 0.9732	994.09	10.53
343.15 K, x1 = 1	994.28	10.82
